US5939403A, “Keratan sulfate oligosaccharide fraction and pharmaceutical containing the same” (Seikagaku Corporation, priority 1994, dated 1999)
Where a name gives a salt, the structure may show the parent alone.

Experiments:
papain-induced arthritis = assay: Papain-induced unilateral arthritis model, intramuscular administration (volume of synovial fluid); format: in vivo, Japanese white rabbits (female); conditions: for quantity of synovial fluid (FIG. 5, result in words): 10 rabbits per group; for Volume of Synovial Fluid: 7 days, control 722, normal 433
Experimental: The anti-inflammatory effect of the keratan sulfate oligosaccharide with rabbits of the papain-induced arthritis model was examined using the volume of synovial fluid as an indication.
Seven days after the injection, the blood was drawn from the auricular artery, and plasma containing heparin was separated. After drawing the blood, the rabbits were anatomized and the both knee joint were separated. The articular cavity was washed with 2 ml of saline three times to recover the synovial fluid. The calcium concentrations in the plasma and the recovered synovial fluid were determined, and the volume of synovial fluid was calculated from the following formula.
Volume of Synovial Fluid (ul/articulation)=Amount of Calcium in Recovered
Synovial Fluid (μg/articulation)/Concentration of Calcium in Plasma
Into the articular cavity of left joint of Japanese white rabbits (female) of 3 kg weight, 150 μl of the saline solution of papain (1%) was injected, and the right joint was not treated to prepare the unilateral arthritis model. One day after injecting papain, 150 μl of the PBS solution of the purified keratan sulfate tetrasaccharide (I) (2%, 1%, and 0.5% solution; 1.0 mg/kg, 0.5 mg/kg, and 0.25 mg/kg, respectively) which was prepared in Example 1 was injected into the hip muscle of the left side (hereinafter referred to as "the keratan sulfate tetrasaccharide (I) administered group"). As the control, 150 μl of PBS was injected to the arthritis model instead of the PBS solution of the keratan sulfate tetrasaccharide (I) and hereinafter these rabbits are referred to as "the control group". And the normal rabbits not subjected to the papain injection (hereinafter referred to as "the normal group") were also examined in the same manner hereinafter. Seven days after the injection, the volume of synovial fluid was calculated in the same manner as in (1-1).
The examination was performed in the same manner as in (1-3) except for using 150 μl of the PBS solution of the purified keratan sulfate tetrasaccharide (I), the keratan sulfate pentasaccharide (II), and the keratan sulfate disaccharide (III) (1% solution; 0.5 mg/kg) which were prepared in Example 1. In the figure, *, **, and *** represent that they have the significant difference with p<0.05, p<0.01, and p<0.001, respectively. And in each group, 10 rabbits were used for the examination.

allergic conjunctivitis = assay: TDI-induced allergic conjunctivitis model, eye dropping; format: in vivo, female Hartley guinea pigs
Experimental: A variety of the keratan sulfate oligosaccharide was dropped in the eyes of the guinea pigs subjected to the induction of allergic conjunctivitis to examine the effect thereof.
Toluene diisocyanate (hereinafter referred to as TDI) was diluted with ethyl acetate to a concentration of 10%. To the bilateral vestibule of noses of 10 female Hartley guinea pigs of from about 900 to 1,000 g weight, the 10% TDI (10 μl/animal) obtained above was applied once a day for five days to prepare the TDI sensitization models. The PBS solution of the purified keratan sulfate tetrasaccharide (I) ([…]) which was prepared in Example 1 was dropped in the left eyes of the TDI sensitization models, while PBS was dropped in the right eyes as the control. The dose of dropping was one drop (48+4.6 μl (S.D.)) each from the eye dropper. After 10 minutes, 6.5 μl of 10% TDI was dropped to the both eyes to induce conjunctivitis. After five minutes standing, furthermore, the PBS solution of the keratan sulfate tetrasaccharide (I) ([…]) was dropped in the left eyes, and PBS was dropped in the right eyes. After 15 minutes, observation of the both eyes were carried out. The degree of conjunctivitis was evaluated regarding three items of hyperemia, edema and lacrimation into four grades such as point 0, +1, +2 and +3. In the figure, * represents that it has the significant difference with p<0.05 (wherein "p" means a level of significance by the .chi.^2 test).
The PBS solution of the purified keratan sulfate disaccharide (III), the keratan sulfate tetrasaccharide (I), and the keratan sulfate pentasaccharide (II) (6.0 mg/ml, respectively)which were prepared in Example 1 described above as the test substances were dropped, respectively, in the left eyes of the TDI sensitization models of 10 animals a group each which were prepared in the same manner as in (1) described above, and PBS was dropped in the right eyes as the control. The degree of conjunctivitis was evaluated in the same manner as in (1) described above. In the figure, * represents that it has the significant difference with p<0.05 (wherein "p" means a level of significance by the .chi.^2 test).
The PBS solution containing the purified keratan sulfate tetrasaccharide (I) which was prepared in Example 1 described above, at varieties of concentrations (6 mg/ml, 3 mg/ml, 1.5 mg/ml or 0.75 mg/ml) as the test substance, were dropped, respectively, in the left eyes of the TDI sensitization models of 10 animals a group each which were prepared in the same manner as in (1) described above, and PBS was dropped in the right eyes as the control. The degree of conjunctivitis was evaluated in the same manner as in (1) described above. In the figure, * represents that it has the significant differnce with p<0.05 (wherein "p" means a level of significance by the .chi.^2 test).

[1] = 0.5 mg/kg intramuscular, unilateral model
[2] = 6.0 mg/ml eye drop, comparison of oligosaccharides

Row | Structure (SMILES) | quantity of synovial fluid (FIG. 5, result in words) (papain-induced arthritis; [1]) | degree of conjunctivitis: hyperemia, edema and lacrimation (FIG. 12) (allergic conjunctivitis; [2]) | Volume of Synovial Fluid (papain-induced arthritis; 0.25 mg/kg intramuscular, n = 9, SD 70.6, p < 0.05) [µL] | Volume of Synovial Fluid (papain-induced arthritis; 0.5 mg/kg intramuscular, n = 10, SD 68.9, p < 0.01) [µL] | Volume of Synovial Fluid (papain-induced arthritis; 1.0 mg/kg intramuscular, n = 9, SD 53.1, p < 0.01) [µL] | volume of synovial fluid (result in words) (papain-induced arthritis; 0.25, 0.5, 1.0 mg/kg intramuscular, unilateral model) | degree of conjunctivitis: edema (FIG. 12) (allergic conjunctivitis; 6.0 mg/ml eye drop, comparison of oligosaccharides, p<0.05) | degree of conjunctivitis: edema (FIG. 13) (allergic conjunctivitis; 6 mg/ml, 3 mg/ml, and 1.5 mg/ml eye drop, p<0.05) | degree of conjunctivitis: hyperemia, edema and lacrimation (FIG. 11) (allergic conjunctivitis; 100 mg/ml eye drop) | degree of conjunctivitis: edema (FIG. 11) (allergic conjunctivitis; 100 mg/ml eye drop, p<0.05) | degree of conjunctivitis: hyperemia, edema and lacrimation (FIG. 13) (allergic conjunctivitis; 6, 3, 1.5 and 0.75 mg/ml eye drop)
1 | CC(=O)N[C@H]1C(O)O[C@H](COS(=O)(=O)O)[C@@H](O[C@@H]2O[C@H](COS(=O)(=O)O)[C@H](O)[C@H](O)[C@H]2O)[C@@H]1O (stereo partly drawn) [keratan sulfate disaccharide (III), Gal(6S)β1-4GlcNAc(6S)] | significantly less than that in the control group | tended to show inhibition in all the items |  |  |  |  |  |  |  |  | 
2 | CC(=O)N[C@H]1[C@H](O[C@H]2[C@@H](O)[C@@H](COS(=O)(=O)O)O[C@@H](O[C@H]3[C@H](O)[C@@H](NC(C)=O)C(O)O[C@@H]3COS(=O)(=O)O)[C@@H]2O)O[C@H](COS(=O)(=O)O)[C@@H](O[C@@H]2O[C@H](COS(=O)(=O)O)[C@H](O)[C@H](O)[C@H]2O)[C@@H]1O (stereo partly drawn) [keratan sulfate tetrasaccharide (I), Gal(6S)β1-4GlcNAc(6S)β1-3Gal(6S)β1-4GlcNAc(6S)] | significantly less than that in the control group | tended to show inhibition in all the items | 619 | 597 | 528 | significantly less than that in the control group | shows a significant inhibitory effect on edema | showed a significant inhibitory effect on edema | tended to show inhibition in all the items | significantly inhibited edema compared with the control | tended to show inhibition in all the items
